Assay [1] deals with T1, FGFR2 (Homo sapiens, UniProt P21802, K310R/N549K).
T1 construct: in FGFR aberrations of AN3CA (FGFR2/k310R, N549K); host or cells: AN3CA
Put plainly: pERK potency assay (In Cell ELISA), AN3CA cells. In kind it is cell-based. The conditions noted are these: for IC50: pERK, AN3CA (FGFR2/k310R, N549K) cells, 3 hours; for FGFR1 IC50/FGFR2 IC50 / FGFR3 IC50/FGFR2 IC50: selectivity ratio, pERK potency; for FGFR1 IC50/FGFR2 IC50: FGFR2 relative to FGFR1; for FGFR3 IC50/FGFR2 IC50: FGFR2 relative to FGFR3. The text has this:
(§1) The purpose of this assay is to measure the ability of test compounds to inhibit FGFR mediated downstream signaling cascades, i.e., ERK phosphorylation in cells with FGFR aberrations. FGFR aberrations become constitutively active and thus induces cascades of cellular signaling events that result in increased phosphorylation of ERK at Threonine 202 and Tyrosine 204 (pERK). The procedure called In Cell ELISA described below measures the level of cellular pERK in response to FGFR specific inhibitor compounds in FGFR aberrations of AN3CA (FGFR2/k310R, N549K), DMS114 (FGFR1 amplification), RT112 (FGFR3 overexpression/FGFR3-TACC3 fusion) and Hep3B (FGF19 amplification) cells. AN3CA, DMS114 and Hep3B cells are from ATCC. RT112 cells are from Sigma. DMS114 cells are grown and maintained using RPMI-1640 medium supplemented with 10% heat-inactivated fetal bovine serum. AN3CA, Hep3B and RT112 cells are grown and maintained using DMEM supplemented with 10% heat-inactivated fetal bovine serum. On the day before test compound addition, cells are plated in poly-D-lysine coated 96-well cell culture plates (Corning® BioCoat® Cat #356640) at 40000 cells/well/100 μL and grown overnight in a 37° C., 5% CO2 incubator. Test compounds are prepared with 4-fold serial dilutions in DMSO, with a top concentration of 10 μM. On the day of the assay, 50 μL of test compound diluted in media was added to each well of cell culture plate with the final concentration of compounds spanning from 0.000038 μM to 10 μM. After compound addition, cells are incubated for 3 hours at 37° C., 5% CO2 and then the culture medium is removed. Cells are fixed with 4% formaldehyde in phosphate-buffered saline (PBS) and incubated at RT for 20 min. The plate is then washed three times with PBST (PBS with 0.05% tween-20), followed by the incubation with 100 μL of pre-cooled methanol at −20° C. for 20 min. After incubation, methanol is removed, and the plate is washed once with PBST. Cells are permeabilized with 100 µL/well of 0.1% Triton X-100 in PBS at RT for 20 min and then quenched with quenching buffer (PBST containing 1% H2O2 and 0.1% sodium azide) for 20 min at RT with gentle shaking. After washing once with PBST, blocking buffer (250 ul/well, Pierce™ Protein-Free-PBS Blocking Buffer, Cat #37572) was then added to the cells for 1-h incubation at RT, followed by anti-pERK antibody (cell signaling, 1:1000 dilution in 5% BSA in PBST) incubation overnight at 4° C. and secondary antibody-HRP (Jackson immunoresearch, 1:3000 dilution in 5% BSA in PBST) incubation at RT for 1 h. PBST wash is carried out after each step three times. Before the addition of the substrate (Advansta ELISABright), the plate is washed with PBS twice to remove detergent residues. Cellular pERK level is determined using the microplate reader (Biotek Synergy H1) to detect the chemiluminescence signal. IC50 is determined by fitting a 4-parameter sigmoidal concentration-response model. FGFR wild type cells (H1975, PC-9 and AGS) are used to serve as negative control (FGFR selectivity) with the same assay procedures described above.
On the technique in general: An ELISA detects its analyte on a solid surface through an enzyme-linked reagent.

Assay [2] has as its target T2, FGFR1 (Homo sapiens, UniProt P11362).
T2 construct: DMS114 (FGFR1 amplification); host or cells: DMS114
Put plainly: pERK potency assay (In Cell ELISA), DMS114 cells. In kind it is cell-based. Conditions: DMS114 (FGFR1 amplification) cells, 3 hours.
Text: as §1

Assay [3] deals with T3, FGFR3 (Homo sapiens, UniProt P22607).
T3 construct: RT112 (FGFR3 overexpression/FGFR3-TACC3 fusion); host or cells: RT112; the other entry of the earlier key: TACC3 (Q9Y6A5, Transforming acidic coiled-coil-containing protein 3)
Put plainly: pERK potency assay (In Cell ELISA), RT112 cells. In kind it is cell-based. Conditions: RT112 (FGFR3 overexpression/FGFR3-TACC3 fusion) cells, 3 hours.
Text: as §1

The target in assay [4] is T4, Ba/F3 FGFR2-N549K (Homo sapiens, UniProt P21802, N549K, cells depend on it).
T4 construct: fused on or other part: Q9H694 (Protein bicaudal C homolog 1)
Put plainly: 2D cell proliferation assay, Ba/F3 FGFR2-N549K. In kind it is cell-based, mouse. Conditions: 96 hours, CTG, read-out: Cell Line, IC50 Ba/F3 FGFR2-N549K. Here is the method: (§2) Low IC50 values are indicative of the high potency of the FGFR inhibitor compounds in this assay selling. […] Cell proliferation assays are performed in two-dimensional (2D)) anchorage-dependent conditions in 96 well plates (Corning® Black/Clear flat Bottom, Cat #3603) with the following cell lines: • Ba/F3 FGFR2-BICC1 (human […]): Mouse Ba/F3 cell line stably expressed exogenous human FGFR2-BICC1 fusion gene bearing V546F mutation in FGFR2 Ba/F3; • FGFR2-BICC1 (human FGFR2/[…]): Mouse Ba/F3 cell line stably expressed exogenous human FGFR2-BICC1 fusion gene bearing N549K mutation in FGFR2; • Snu-16: human gastric cancer cell with FGFR2 amplification; • KATO III: human gastric cancer cell with FGFR2 amplification; • AN3CA: Human endometrial cancer with FGFR2 mutation (k310R, N549K); • MFM-223: Human breast cancer with FGFR1/2 amplification; • MFE-296: Human endometrial cancer with FGFR2 mutation (N549K); • MFE-280: Human endometrial cancer with FGFR2 mutation ([…]); • NCI-H1581: human non-small cell lung cancer with FGFR1 amplification; • KG-1a: Acute myelogenous leukemia with FGFR1OP2-FGFR1 translocation; • DMS114: human small cell carcinoma of the lung with FGFR1 amplification; • RT112: human bladder cancer with FGFR3 overexpression/FGFR3-TACC3 fusion; • SW780: human bladder cancer with FGFR3 overexpression/FGFR3-BALAP2L1 fusion; • Hep3B: Liver cancer with FGF19 amplification (FGFR4 ligand); • AGS: Human gastric adenocarcinoma with Kras G12D mutation and FGFR wild type; • PC-9: human non-small cell lung cancer (NSCLC) with wild-type FGFR and an EGFR del19 mutation; or • H1975: human non-small cell lung cancer (NSCLC) with wild-type FGFR and EGFR L858R/T790M mutation.
(§3) Cell lines are purchased from the American Type Culture Collection (ATCC) or Sigma. All cell lines are maintained in RPMI-1640 or DMEM supplemented with 10% heat-inactivated fetal bovine serum.
(§4) Cells growing in the log phase are detached with Gibco™ TrypLE™ Express Enzyme and plated in 96 well plate at 3000 to 5000 cells/well in 100 μl of media. After overnight incubation at 37° C., 5% CO2 incubator, cells are treated with compounds (50 uL/well) at the final concentrations spanning from 0.000038 uM to 10 μM (4-fold serial dilution for total of 10 points). Cells are incubated at 37° C., 5% CO2, and 95% humidity incubator for 96 hours. At the end of incubation 2D CTG reagent from Promega was added to each well according to vendors recommendation and mixed for 10 min in dark. The luminescence signals are determined with a Biotek™ plate reader. Data is fitted using a sigmoidal curve analysis program (GraphPad Prism®) with variable hill slope and IC50 is determined.

In assay [5] the target is T5, Ba/F3 FGFR2-V564F (Homo sapiens, UniProt P21802, V564F, cells depend on it).
T5 construct: fused on or other part: Q9H694 (Protein bicaudal C homolog 1)
Put plainly: 2D cell proliferation assay, Ba/F3 FGFR2-V564F. Conditions: 96 hours, CTG, read-out: Cell Line, IC50 Ba/F3 FGFR2-V564F. In kind it is cell-based, mouse. On the procedure: as §2, §3, §4

The values below come from US20260152503A1, “SPIROBICYCLIC COMPOUNDS” (ACERAND THERAPEUTICS (HONG KONG) LIMITED, priority 2022, published 2026).

The structures appear in SMILES notation.

T1 sequence (P21802 22-821 K310R/N549K): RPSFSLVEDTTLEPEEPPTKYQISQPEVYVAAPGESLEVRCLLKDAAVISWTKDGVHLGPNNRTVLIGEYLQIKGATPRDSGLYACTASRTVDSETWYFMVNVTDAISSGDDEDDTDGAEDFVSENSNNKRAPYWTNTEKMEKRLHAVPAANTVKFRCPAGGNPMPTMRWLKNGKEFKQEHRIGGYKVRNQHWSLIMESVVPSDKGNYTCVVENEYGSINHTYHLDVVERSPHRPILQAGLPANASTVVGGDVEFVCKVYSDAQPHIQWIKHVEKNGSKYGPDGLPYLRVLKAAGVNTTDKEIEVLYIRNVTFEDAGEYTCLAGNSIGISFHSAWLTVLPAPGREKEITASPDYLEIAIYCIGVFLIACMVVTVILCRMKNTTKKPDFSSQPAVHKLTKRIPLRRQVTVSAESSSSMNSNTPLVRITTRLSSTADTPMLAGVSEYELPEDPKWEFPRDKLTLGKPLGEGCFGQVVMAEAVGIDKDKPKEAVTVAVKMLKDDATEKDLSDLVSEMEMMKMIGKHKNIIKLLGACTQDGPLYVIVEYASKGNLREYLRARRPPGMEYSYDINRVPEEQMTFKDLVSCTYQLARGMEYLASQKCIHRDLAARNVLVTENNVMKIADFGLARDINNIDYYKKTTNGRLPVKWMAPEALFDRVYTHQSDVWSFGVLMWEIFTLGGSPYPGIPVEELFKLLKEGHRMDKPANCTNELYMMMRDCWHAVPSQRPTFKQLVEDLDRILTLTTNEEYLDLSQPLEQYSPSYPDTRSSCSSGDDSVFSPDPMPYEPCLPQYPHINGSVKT
T5 sequence (P21802 whole entry V564F, the tested form may be a part): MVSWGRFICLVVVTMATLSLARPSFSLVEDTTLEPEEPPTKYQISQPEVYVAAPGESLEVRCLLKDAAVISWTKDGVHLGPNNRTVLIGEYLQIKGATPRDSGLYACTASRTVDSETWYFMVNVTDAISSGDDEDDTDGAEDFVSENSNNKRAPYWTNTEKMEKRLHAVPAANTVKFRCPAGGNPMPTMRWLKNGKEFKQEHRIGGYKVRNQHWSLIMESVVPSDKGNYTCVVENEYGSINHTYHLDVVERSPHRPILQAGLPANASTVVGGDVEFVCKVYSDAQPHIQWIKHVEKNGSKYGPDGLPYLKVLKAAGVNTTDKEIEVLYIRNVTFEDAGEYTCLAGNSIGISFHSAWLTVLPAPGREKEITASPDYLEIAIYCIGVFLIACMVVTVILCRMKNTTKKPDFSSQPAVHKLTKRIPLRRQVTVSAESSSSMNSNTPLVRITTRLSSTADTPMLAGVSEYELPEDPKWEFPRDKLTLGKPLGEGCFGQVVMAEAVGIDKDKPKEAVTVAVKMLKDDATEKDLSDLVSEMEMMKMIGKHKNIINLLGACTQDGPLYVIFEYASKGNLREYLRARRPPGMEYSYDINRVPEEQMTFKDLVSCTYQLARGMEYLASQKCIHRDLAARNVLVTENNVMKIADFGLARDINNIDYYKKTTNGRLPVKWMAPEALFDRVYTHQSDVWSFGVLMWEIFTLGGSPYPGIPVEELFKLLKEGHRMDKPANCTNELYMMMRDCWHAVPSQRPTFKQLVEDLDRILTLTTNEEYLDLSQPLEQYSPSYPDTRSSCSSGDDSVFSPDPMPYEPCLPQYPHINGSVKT
T2 sequence (P11362 22-822): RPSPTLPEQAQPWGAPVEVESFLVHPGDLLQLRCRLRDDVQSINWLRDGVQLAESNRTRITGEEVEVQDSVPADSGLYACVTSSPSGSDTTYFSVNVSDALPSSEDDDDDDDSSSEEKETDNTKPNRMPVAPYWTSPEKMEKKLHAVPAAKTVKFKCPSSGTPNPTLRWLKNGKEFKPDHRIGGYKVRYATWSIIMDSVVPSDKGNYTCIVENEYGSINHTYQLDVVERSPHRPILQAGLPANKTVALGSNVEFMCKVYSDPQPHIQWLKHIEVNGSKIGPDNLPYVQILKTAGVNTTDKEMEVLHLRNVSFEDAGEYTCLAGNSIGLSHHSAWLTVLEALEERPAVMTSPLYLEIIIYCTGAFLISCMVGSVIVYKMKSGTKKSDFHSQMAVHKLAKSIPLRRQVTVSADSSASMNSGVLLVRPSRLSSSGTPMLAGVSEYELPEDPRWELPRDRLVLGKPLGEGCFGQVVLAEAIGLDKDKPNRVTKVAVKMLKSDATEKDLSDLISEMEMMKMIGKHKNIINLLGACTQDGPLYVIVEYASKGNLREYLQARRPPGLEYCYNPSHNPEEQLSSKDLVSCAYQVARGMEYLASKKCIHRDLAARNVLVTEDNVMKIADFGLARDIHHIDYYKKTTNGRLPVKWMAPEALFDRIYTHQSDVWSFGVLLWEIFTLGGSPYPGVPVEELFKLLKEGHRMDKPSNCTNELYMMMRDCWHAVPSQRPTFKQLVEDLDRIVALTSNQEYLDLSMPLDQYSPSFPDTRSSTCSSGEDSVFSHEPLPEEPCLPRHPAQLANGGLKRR
T4 sequence (P21802 whole entry N549K, the tested form may be a part): as the sequence (P21802 whole entry V564F, the tested form may be a part) above, with N549K, F564V counted along it

For orientation: IC50 means the concentration that gives 50% inhibition. Consider `C=CC(=O)N1CCC2(CC=C(c3c(-c4ncc(OC5CC5)cn4)c4c(N)ncnc4n3C)CC2)CC1` [Example 50, 1-(9-(4-amino-5-(5-cyclopropoxypyrimidin-2-yl)-7-methyl-7H-pyrrolo[2,3-d]pyrimidin-6-yl)-3-azaspiro[5.5]undec-8-en-3-yl)prop-2-en-1-one], for which the IC50 is at most 1 nM in assay [1], over 100 nM in assay [2] and over 100 nM in assay [3]. For the same compound, the “FGFR1 IC50/FGFR2 IC50” value in assay [1] is “G (a selectivity ratio greater than 150 but less than or equal to 500)”. Moreover, the “FGFR3 IC50/FGFR2 IC50” value in assay [1] is listed as “I (a selectivity ratio greater than 1000 but less than or equal to 2000)”. Besides, the GI50 was 1 to 10 nM in assay [4] and at most 1 nM in assay [5].
Consider `C=CC(=O)N1CCC2(CC=C(c3c(-c4ncc(C5CC5)cn4)c4c(N)ncnc4n3C)CC2)CC1` [Example 45, 1-(9-(4-amino-5-(5-cyclopropylpyrimidin-2-yl)-7-methyl-7H-pyrrolo[2,3-d]pyrimidin-6-yl)-3-azaspiro[5.5]undec-8-en-3-yl)prop-2-en-1-one], for which the 50% inhibitory concentration (IC50) in assay [1] was at most 1 nM; in assay [2] it was over 100 nM; in assay [3] it was over 100 nM. Moreover, the “FGFR1 IC50/FGFR2 IC50” value in assay [1] is reported as “G (a selectivity ratio greater than 150 but less than or equal to 500)”. Besides, the “FGFR3 IC50/FGFR2 IC50” value in assay [1] is “H (a selectivity ratio greater than 500 but less than or equal to 1000)”. The GI50 in assay [4] and in assay [5] was 1 to 10 nM each time.
Turning to `C=CC(=O)N1CCC2(CC=C(c3c(-c4ncc(F)cn4)c4c(N)ncnc4n3C)CC2)CC1` [Example 44, 1-(9-(4-amino-5-(5-fluoropyrimidin-2-yl)-7-methyl-7H-pyrrolo[2,3-d]pyrimidin-6-yl)-3-azaspiro[5.5]undec-8-en-3-yl)prop-2-en-1-one], the figures for the IC50 in assay [1], in assay [2] and in assay [3] were 1 to 10 nM, over 100 nM and over 100 nM, respectively. Further, in assay [1], the “FGFR1 IC50/FGFR2 IC50” value is “H (a selectivity ratio greater than 500 but less than or equal to 1000)”. Further, in assay [1], the “FGFR3 IC50/FGFR2 IC50” value was “J (a selectivity ratio greater than 2000)”. Moreover, the GI50 is 1 to 10 nM in assay [4] and at most 1 nM in assay [5].
On to `C=CC(=O)N1CCC2(CC=C(c3c(-c4ccc(OC5CC5)cc4)c4c(N)ncnc4n3C(F)F)CC2)CC1` [Example 36, 1-(9-(4-amino-5-(4-cyclopropoxyphenyl)-7-(difluoromethyl)-7H-pyrrolo[2,3-d]pyrimidin-6-yl)-3-azaspiro[5.5]undec-8-en-3-yl)prop-2-en-1-one], for which, in assay [1], the IC50 is 1 to 10 nM, the “FGFR1 IC50/FGFR2 IC50” value is “F (a selectivity ratio greater than 50 but less than or equal to 150)” and the “FGFR3 IC50/FGFR2 IC50” value is “G (a selectivity ratio greater than 150 but less than or equal to 500)”. In assay [2], the IC50 lay in the range of 30 to 100 nM. The IC50 in assay [3] is over 100 nM.
Consider `C=CC(=O)N1CCC2(CC=C(c3c(C4COC4)c4c(N)ncnc4n3C)CC2)CC1` [Example 55, 1-(9-(4-amino-7-methyl-5-(oxetan-3-yl)-7H-pyrrolo[2,3-d]pyrimidin-6-yl)-3-azaspiro[5.5]undec-8-en-3-yl)prop-2-en-1-one], for which the IC50 in assay [1] was at most 1 nM; in assay [2] it was 10 to 30 nM; in assay [3], 30 to 100 nM. Further, in assay [1], the “FGFR3 IC50/FGFR2 IC50” value is reported as “F (a selectivity ratio greater than 50 but less than or equal to 150)”.
As to `C=CC(=O)N1CCC2(CC=C(c3c(-c4cccnc4)c4c(N)ncnc4n3C)CC2)CC1` [Example 12, 1-(9-(4-amino-7-methyl-5-(pyridin-3-yl)-7H-pyrrolo[2,3-d]pyrimidin-6-yl)-3-azaspiro[5.5]undec-8-en-3-yl)prop-2-en-1-one], the IC50 in assay [1] is 10 to 30 nM; in assay [2] it was over 100 nM; in assay [3] it was over 100 nM. Moreover, the “FGFR1 IC50/FGFR2 IC50” value in assay [1] was “G (a selectivity ratio greater than 150 but less than or equal to 500)”. Also, the “FGFR3 IC50/FGFR2 IC50” value in assay [1] was “H (a selectivity ratio greater than 500 but less than or equal to 1000)”.
As to `C=CC(=O)N1CCC2(CC=C(c3c(-c4ccc(OCCN5CCCC5)cc4)c4c(N)ncnc4n3C)CC2)CC1` [Example 20, 1-(9-(4-amino-7-methyl-5-(4-(2-(pyrrolidin-1-yl)ethoxy)phenyl)-7H-pyrrolo[2,3-d]pyrimidin-6-yl)-3-azaspiro[5.5]undec-8-en-3-yl)prop-2-en-1-one], the IC50 in assay [1] is 30 to 100 nM; in assay [2], over 100 nM; in assay [3], over 100 nM. In addition, in assay [1], the “FGFR3 IC50/FGFR2 IC50” value is reported as “F (a selectivity ratio greater than 50 but less than or equal to 150)”.
